Laboratory results reported in US20110207804A1, “COMPOSITIONS FOR THE TREATMENT OF NEOPLASTIC DISEASES” (Slotervaart Participaties BV, priority 2008, published 2011).

What was measured:
[1] = docetaxel powder dissolution test, 25 mL water in beaker; format: physicochemical; conditions: for maximum docetaxel concentration reached / maximum docetaxel in solution, % of total docetaxel present: ±6 mg docetaxel
Procedure: An amount of powder, equal to approximately 6 mg Docetaxel, was placed in a 50 mL beaker. A magnetic stirring bar and 25 mL water were added to the beaker. The solution was stirred at 720 rpm, and kept at approximately 37° C. Samples were collected at various timepoints, and filtrated using a 0.45 μm filter before they were diluted with a 1:4 v/v mixture of methanol and acetonitrile. The filtrated and diluted samples were subsequently analyzed by HPLC-UV (see table 15).

[2] = clinical phase I trial, docetaxel plasma pharmacokinetics; format: in vivo, human; conditions: 20 mg docetaxel liquid formulation; 100 mg ritonavir at t=0 plus 100 mg 4 hours after docetaxel; patient 306
Procedure: 10 patients participated in an ongoing clinical phase I trial.
These patients were given medication which consisted of a liquid formulation of docetaxel or a solid composition comprising a solid dispersion of docetaxel, PVP-K30 and SDS (referred to hereinafter as MODRA).
Docetaxel dose: 30 mg for all patients (with the exception of patient 306 who received 20 mg docetaxel). The 30 mg dose was prepared as follows: 3.0 mL Taxotere® premix for intravenous administration (containing 10 mg docetaxel per ml in polysorbate 80 (25% v/v), ethanol (10% (w/w), and water) was mixed with water to a final volume of 25 mL. This solution was orally ingested by the patient with 100 mL tap water.
Docetaxel dose: 30 mg; 2 capsules with 15 mg docetaxel per capsule were ingested. Formulation E from the previous example (1/11 docetaxel, 9/11 PVP-K30 and 1/11 SDS) was selected for further testing in the clinical trial. A new batch of formulation E was produced by dissolving 1200 mg docetaxel anhydrate in 120 mL of t-butanol, and 10800 mg PVP-K30 and 1200 mg SDS (see table 13) in 80 mL of Water for Injection. The docetaxel/t-butanol solution was added to the PVP-K30/SDS/WfI solution under constant stirring. […]
The bioavailability of the MODRA capsules was calculated by: […]

Row | SMILES | solubility from 10 to 60 minutes ([1]; 10 to 60 minutes) | time of stirring to maximum concentration ([1]; 25 mL WfI, 37° C., 720 rpm) [min] | maximum docetaxel concentration reached ([1]; 25 mL WfI, 37° C., 720 rpm) | maximum docetaxel in solution, % of total docetaxel present ([1]; 25 mL WfI, 37° C., 720 rpm) [%] | fold increase of docetaxel AUC by second boosting dose of ritonavir [2] [fold] | time at which equilibrium concentration is reached [1] [min] | equilibrium docetaxel in solution, % of total docetaxel present ([1]; after precipitation) [%] | equilibrium docetaxel concentration ([1]; after precipitation, 25 mL WfI, 37° C., 720 rpm)
1 | CC(=O)O[C@@]12CO[C@@H]1C[C@H](O)[C@@]1(C)C(=O)[C@H](O)C3=C(C)[C@@H](OC(=O)[C@H](O)[C@@H](NC(=O)OC(C)(C)C)c4ccccc4)C[C@@](O)([C@@H](OC(=O)c4ccccc4)[C@H]21)C3(C)C [Formulation B, Amorphous Docetaxel] | comparable to formulation A | 0.5 | 32 µg/mL | 13 | – | – | – | –
2 | CC(=O)O[C@@]12CO[C@@H]1C[C@H](O)[C@@]1(C)C(=O)[C@H](O)C3=C(C)[C@@H](OC(=O)[C@H](O)[C@@H](NC(=O)OC(C)(C)C)c4ccccc4)C[C@@](O)([C@@H](OC(=O)c4ccccc4)[C@H]21)C3(C)C [docetaxel] | – | – | – | – | 1.5 | – | – | –
3 | CC(=O)O[C@@]12CO[C@@H]1C[C@H](O)[C@@]1(C)C(=O)[C@H](O)C3=C(C)[C@@H](OC(=O)[C@H](O)[C@@H](NC(=O)OC(C)(C)C)c4ccccc4)C[C@@](O)([C@@H](OC(=O)c4ccccc4)[C@H]21)C3(C)C [Formulation A, Anhydrous Docetaxel] | – | 5 | approximately 12 μg/mL | ~4.7 | – | 15 | ~2 | approximately 6 μg/mL
